Test results: patent US12351574B2, “Selective ligands for modulation of GIRK channels” (Northeastern University, priority 2018, dated 2025)

Experiments:
GIRK1/2 = biological target: T1, GIRK1/2 (UniProt P48542+P48549); test: current inhibition by light-activated phosphatase 5-ptaseOCRL, HEK293 whole-cell patch-clamp, GIRK1/2; format: cell-based, human GIRK1, mouse GIRK2; design: expressed in transfected cells; details: for percentage of GIRK1/2 channel current remaining following activation of 5-ptaseOCRL (in words) / τ of current-inhibition, GIRK1/2 (in words): 10 μM compound versus control; for protection from current inhibition, rank order, GIRK1/2: current levels and kinetics of inhibition
T1 sequence (P48549 1-501): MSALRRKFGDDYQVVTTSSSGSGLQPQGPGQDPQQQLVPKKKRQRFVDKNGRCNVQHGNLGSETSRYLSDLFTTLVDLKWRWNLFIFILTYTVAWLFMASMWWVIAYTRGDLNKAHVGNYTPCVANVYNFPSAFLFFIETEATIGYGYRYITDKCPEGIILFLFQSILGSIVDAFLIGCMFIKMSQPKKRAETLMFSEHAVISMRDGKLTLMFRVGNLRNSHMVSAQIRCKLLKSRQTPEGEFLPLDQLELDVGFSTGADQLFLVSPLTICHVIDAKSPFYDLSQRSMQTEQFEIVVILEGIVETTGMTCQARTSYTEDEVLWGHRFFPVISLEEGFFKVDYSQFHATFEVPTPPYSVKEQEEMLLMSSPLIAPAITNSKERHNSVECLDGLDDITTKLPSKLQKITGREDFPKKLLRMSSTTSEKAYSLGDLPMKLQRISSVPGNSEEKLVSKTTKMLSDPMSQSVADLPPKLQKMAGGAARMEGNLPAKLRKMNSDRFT
T1 sequence (P48542 1-425): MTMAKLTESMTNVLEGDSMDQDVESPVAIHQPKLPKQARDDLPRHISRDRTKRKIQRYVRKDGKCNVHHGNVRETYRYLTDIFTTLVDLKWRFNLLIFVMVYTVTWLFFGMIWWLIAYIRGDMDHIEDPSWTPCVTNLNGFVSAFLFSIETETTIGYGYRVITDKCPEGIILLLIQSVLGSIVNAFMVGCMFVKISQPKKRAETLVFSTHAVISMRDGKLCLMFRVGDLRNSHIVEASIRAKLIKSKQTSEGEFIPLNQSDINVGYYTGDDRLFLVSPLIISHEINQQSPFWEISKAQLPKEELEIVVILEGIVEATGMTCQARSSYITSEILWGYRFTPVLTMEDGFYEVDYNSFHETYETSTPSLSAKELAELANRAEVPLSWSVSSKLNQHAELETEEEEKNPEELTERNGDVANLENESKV
Description: The inventors next pursued whole-cell patch-clamp experiments to further validate the model predictions and excised-patch results. Expression of a light-activated phosphatase that upon exposure to blue light dephosphorylates PI(4,5)P2 to PI(4)P and inhibits GIRK currents allowed recording of macroscopic currents in the absence and presence of ML297 and the two brain-specific GAT compounds. […] Since GAT1508 and ML297 only bind GIRK1 or GIRK1-like (i.e. “FD-containing”, “FD”=mimics the contribution of GIRK1 residues F137 and D173, see Example 2) subunits resulting in corresponding changes in channel-PIP2 interactions and channel activity, the inventors next sought to compare channel subunit specific interactions with PIP2 for subunits bound to the ligand (P-FD) versus those not bound to the ligand (P-WT) (FIGS. 19, 38A).
Culture of HEK293 cells: HEK293-T cells were obtained from ATCC and maintained in DMEM medium supplemented with 10% FBS and 1% penicillin and streptomycin (Hyclone). For patch-clamp studies, cells were seeded on glass coverslips and transfected 24-hours later using a polyethylenimine solution (1 mg/ml) at a ratio of 8 μl per μg of DNA. To study GIRK-currents, cells were transfected with 0.75 μg each of plasmids encoding GIRK1, GIRK2 or GIRK4 as indicated. In the optogenetic experiments, cells were co-transfected with plasmids encoding 5-ptaseOCRL and CIBN-CAAX, as previously described. 5-ptaseOCRL and CIBN-CAAX were a kind gift from the DeCamilli lab, Yale CT. All experiments were performed at room temperature 24-36 hours post transfection.
(§1) Light-activated phosphatase system: The inventors used a light-activated phosphatase system to dephosphorylate PIP2 that is comprised of two fusion proteins: CRY2-5-ptaseOCRL contains the photolyase domain of cryptochrome 2 (CRY2) and the inositol 5-phosphatase domain of the […] oculocerebrorenal syndrome protein (OCRL), while CIBN-CAAX contains the CRY2 binding domain (CIBN) and a C-terminal CAAX box for plasma membrane targeting. When CRY2-5-ptaseOCRL and CIBN-CAAX fusion proteins are co-expressed and exposed to blue light between 458-488 nm, the 5-ptase is localized to the plasma membrane, where it dephosphorylates PIP2. […] The 5-ptaseOCRL system was activated using a 460 nm LED (Luminus) that was focused on the cells through the objective lens of an inverted microscope (Nikon).
Patch-clamp recording: Whole-cell currents were recorded with an Axopatch 200B amplifier (Molecular Devices) controlled via a USB-interface (National Instruments) using WinWCP software (University of Strathclyde). Currents were acquired through a lowpass Bessel filter at 2 kHz and were digitized at 10 kHz. […] Cells for study were selected based on GFP expression using an epifluorescence microscope (Nikon). […] Cells were perfused via a multi-channel gravity-driven perfusion manifold with a physiological buffer comprising: 135 mM NaCl, 5 mM KCl, 1.2 mM MgCl2, 1.5 mM CaCl2, 8 mM Glucose, and 10 mM HEPES; pH 7.4, then quickly transitioning to a high-K^+ buffer comprising 5 mM NaCl, 135 mM KCl, 1.2 mM MgCl2, 1.5 mM CaCl2, 8 mM Glucose, and 10 mM HEPES; pH 7.4. The barium-sensitive component of the current, observed when cells were perfused with the high-K^+ buffer, was analyzed and was determined by perfusing 5 mM BaCl2 in the high-K^+ buffer at the end of each experiment. The 5-ptaseOCRL system was activated using a 460 nm LED (Luminus) that was focused on the cells through the objective lens of an inverted microscope (Nikon). […] ML297, GAT1508 or GAT1521 were maintained as 10 mM stock solutions in DMSO and were diluted to concentrations between 10 μM and 1 nM using the high K^+ buffer for patch-clamp experiments.

GIRK heteromers = biological target: T2, GIRK heteromers (UniProt P48542+P48549); test: concentration-response after PIP2 hydrolysis by light-sensitive phosphatase, whole-cell patch-clamp in mammalian cells; format: cell-based; details: stimulation of light-sensitive phosphatase, FIGS. 20A-20C
T2 construct: expressed in transfected cells; HEK293-T in the methods
T2 sequence (P48549 1-501): T1 sequence (P48549 1-501)
T2 sequence (P48542 1-425): T1 sequence (P48542 1-425)
Description: The MD simulations indicated a PIP2-dependent activation effect by ML297 and the GAT compounds in GIRK heteromers leading to channel gating. To experimentally test the role of PIP2 in channel activation by ML297 and the GAT compounds, the inventors proceeded to first manipulate PIP2 levels by inducing a light-sensitive phosphatase in whole-cell patch-clamp experiments in mammalian cells and to examine the effects of the activating compounds (FIGS. 20A-20C).
as §1
Patch-clamp recording: Whole-cell currents were recorded with an Axopatch 200B amplifier (Molecular Devices) controlled via a USB-interface (National Instruments) using WinWCP software (University of Strathclyde). Currents were acquired through a lowpass Bessel filter at 2 kHz and were digitized at 10 kHz. […] Cells for study were selected based on GFP expression using an epifluorescence microscope (Nikon). […] The barium-sensitive component of the current, observed when cells were perfused with the high-K^+ buffer, was analyzed and was determined by perfusing 5 mM BaCl2 in the high-K^+ buffer at the end of each experiment. […]

| percentage of GIRK1/2 channel current remaining following activation of 5-ptaseOCRL (in words) (GIRK1/2) | τ of current-inhibition, GIRK1/2 (in words) (GIRK1/2) | protection from current inhibition, rank order, GIRK1/2 (GIRK1/2) | decrease in potency following hydrolysis of PIP2 (GIRK heteromers) | SMILES |
| --- | --- | --- | --- | --- |
| increase | increase | GAT1508>GAT1521>ML297>Control | ~2 fold | Cc1cc(NC(=O)Nc2ccc(Br)s2)n(-c2ccccc2)n1 [GAT1508, 1-(5-bromothiophen-2-yl)-3-(3-methyl-1-phenyl-1H-pyrazol-5-yl)urea] |
| increase | increase | GAT1508>GAT1521>ML297>Control | ~3.7 fold | Cc1cc(NC(=O)Nc2ccc(C)s2)n(-c2ccccc2)n1 [GAT1521, 1-(3-methyl-1-phenyl-1H-pyrazol-5-yl)-3-(5-methylthiophen-2-yl)urea] |
| increase | increase | GAT1508>GAT1521>ML297>Control | ~3 fold | Cc1cc(NC(=O)Nc2ccc(F)c(F)c2)n(-c2ccccc2)n1 [ML297, reference compound] |
